We go through four compounds from US3935309A, “Synergistic combinations of phosphonomycin and bacteriostatic agents” (Merck & Co., Inc., priority 1974, dated 1976).

Assay [1] concerns Klebsiella pneumoniae "B". Kind of assay: Combined antibiotic therapy of experimental infection in mice (Example 5). It is filed as in vivo, mice infected with Klebsiella pneumoniae "B". The following applies: for s.c. ED50: 7 LD50. From the text: (§1) For example, using Escherichia coli 2017 as the infecting agent, sodium phosphonomycin was titrated alone and in the presence 5 and also in the presence of 0.5γtetracycline, while tetracycline was titrated alone and in the presence of 50γ, and also in the presence of 5γof sodium phosphonomycin. The two drugs were given by the subcutaneous route at separate sites on the ventral surface of the mouse. Such therapy was given only at the time of infection for the Escherichia coli and Pseudomonas aeruginosa tests but both at the time of infection and 6 hours later for all other tests. Infection was given intraperitoneally using broth suspensions of the test organism.

The next assay concerns Pseudomonas aeruginosa. Kind of assay: MIC by two-fold serial broth dilution, alone and in combination (Example 1). Type of assay: cell-based. The following applies: for MIC: Pseudomonas aeruginosa, read-out: MIC of 2nd Subst. How it is done:
(§2) The MIC (minimum inhibitory concentration) of phosphonomycin and each of the other antibiotics by itself was determined before the combination synergy experiment was begun, as follows: 2 ml. of a double strength solution in sterile distilled water of the highest strength to be tested (usually 1000γ) was added to a tube of double strength nutrient broth (NB) and mixed thoroughly. Two-fold serial dilutions were then made by transferring 2 ml. to the next tube (1 × NB) and so on for approximately 12 tubes. The tubes were inoculated with one drop each of a 1:50 dilution of a culture adjusted to a Lumetron 60 reading in NB + 0.2% yeast extract so as to provide a concentration of cells of approximately 25,000/ml. The tubes were then incubated at 37°C. and examined for growth at 24, 48 and 72 hours.
(§3) In the combination experiment, the MIC value obtained as described above was used as approximately the midpoint of the range to be tested for each of the two antibiotics of the combination. In a manner similar to the above, two-fold dilutions of the first substance in the combination were made except that 1.8 ml. volumes were used and a 2.2 × strength solution of both the antibiotic and the NB were made. The second antibiotic of the combination was added to duplicate rows of serial dilutions of the first substance as follows: 0.2 ml. in NB of a [formula] and a [formula] respectively, of the second substance was added to each tube in a row of serial dilutions of the first antibiotic. The final concentration that resulted enabled the determination of the effect of both MIC/4 and MIC/8 of each substance in the presence of from approximately 32 MIC to [formula] of the other. Inocula were added as in the initial single MIC experiment.

The next assay relates to Klebsiella pneumoniae. The assay is described as above. Type of assay: cell-based. How it is done: as §2, §3
The subject of the next assay is Staphylococcus aureus. The assay is described as above. Type of assay: cell-based. The following applies: for MIC: Staphylococcus aureus, read-out: MIC of 2nd Subst. How it is done: as §2, §3
A further assay concerns Proteus vulgaris. The assay is described as above. It is filed as cell-based. The following applies: for MIC: Proteus vulgaris, read-out: MIC of 2nd Subst. How it is done: as §2, §3
The subject of the next assay is Streptococcus faecalis. The description is as above. The following applies: for MIC: Enterococcus faecalis, read-out: MIC of 2nd Subst. Type of assay: cell-based. How it is done:
as §2, §3

The subject of a further assay is Pseudomonas stutzeri. Described as above. It is filed as cell-based. How it is done: as §2, §3
In the next assay the test system is pathogenic bacteria. Kind of assay: in vitro combination tests with various pathogens (general description). The following applies: for potentiation when combined with phosphonomycin: various strains of pathogenic bacteria. Type of assay: cell-based. The source says:
Other experimental results have shown that novobiocin, chlortetracycline and sulfisoxazole are potentiated when combined with phosphonomycin and tested with various strains of pathogenic bacteria.

For assay [2], the system named is Pseudomonas aeruginosa 3210. Kind of assay: Combined antibiotic therapy of experimental infection in mice (Example 5). It is filed as in vivo, mice infected with Pseudomonas aeruginosa 3210. The following applies: for s.c. ED50: 10 LD50.
Description: as §1

A further assay concerns Escherichia coli 2017. Kind of assay: Combined antibiotic therapy of Escherichia coli infection in mice (Example 5). Type of assay: in vivo, mice infected with Escherichia coli 2017. Details: ED50: unit not given beside the values. The following applies: for ED50 / % of effective dose: first test.
Description: as §1

Setting [3] is: novobiocin itself, at the levels tested.
Setting [4] is: in presence of MIC/2 instead of ≤ MIC/4.

Like-named read-outs stand apart in the source and are kept apart here. Some results are limits rather than exact numbers.

As to `CO[C@@H]1[C@@H](OC(N)=O)[C@@H](O)[C@H](Oc2ccc3c(O)c(NC(=O)c4ccc(O)c(CC=C(C)C)c4)c(=O)oc3c2C)OC1(C)C` [Novobiocin], the “s.c. ED50” value in [1] (alone, therapy at 0 and 6 hours, phosphonomycin as sodium salt) is above 2500 µg; in assay [1] (novobiocin titrated, phosphonomycin > 100), above 2500 µg; in [1] (novobiocin with phosphonomycin > 10) it was above 2500 µg; in assay [2] (alone, therapy at 0 hour only, phosphonomycin as sodium salt), above 10000 µg; in assay [2] (novobiocin titrated, phosphonomycin > 20), above 10000 µg; in assay [2] (novobiocin with phosphonomycin >200) it was above 10000 µg. Further, the protection of mice result in [1] (setting [3]) and in [2] (setting [3]) was “did not protect” throughout. Moreover, the “MIC of 2nd Subst. in presence of ≤ MIC/4 of phosphonomycin” value (shortened to “MIC … of ≤ MIC/4 of phosphonomycin”) in the assay with Pseudomonas aeruginosa was 62.5; with Klebsiella pneumoniae it was below 2; in the assay with Proteus vulgaris, 3.9; in the assay with Streptococcus faecalis, 4; with Pseudomonas stutzeri, 8. In addition, the MIC in the assay on Pseudomonas aeruginosa amounted to 250 mg/L; with Klebsiella pneumoniae (Klebsiella pneumoniae, alone, read-out: MIC of 2nd Subst.) it was 32 mg/L; in the assay with Staphylococcus aureus it was 0.06 mg/L; in the assay with Proteus vulgaris it was 32 mg/L; in the assay on Streptococcus faecalis, 4 mg/L; in the assay with Pseudomonas stutzeri (Stutzerimonas stutzeri, alone, read-out: MIC of 2nd Subst.) it was 32 mg/L. In the assay with Staphylococcus aureus (setting [4]), the MIC of 2nd Subst. in presence of phosphonomycin is 0.015 mg/L. The “control of pathogens by combination with phosphonomycin” value in the assay with pathogenic bacteria is “effective in controlling pathogens which cannot be effectively controlled by either antibiotic separately”. For the same compound, the “potentiation when combined with phosphonomycin” value in the assay with pathogenic bacteria was “potentiated”.

For `CC[C@H]1OC(=O)[C@H](C)[C@@H](O[C@H]2C[C@@](C)(OC)[C@@H](O)[C@H](C)O2)[C@H](C)[C@@H](O[C@@H]2O[C@H](C)C[C@H](N(C)C)[C@H]2O)[C@](C)(O)C[C@@H](C)C(=O)[C@H](C)[C@@H](O)[C@]1(C)O` [Erythromycin], the MIC with Pseudomonas aeruginosa was above 16000 mg/L; with Staphylococcus aureus it was 8 mg/L; in the assay on Proteus vulgaris it was 1000 mg/L; in the assay on Streptococcus faecalis, 32 mg/L. In addition, the “MIC … of ≤ MIC/4 of phosphonomycin” value in the assay with Pseudomonas aeruginosa (resistant growth present) came out at 2000; in the assay with Staphylococcus aureus, 2; in the assay with Streptococcus faecalis, 16. The MIC of 2nd Subst. in presence of phosphonomycin with Proteus vulgaris (setting [4]) is 500 mg/L.

For `C[C@@H]1O[C@@H]1P(=O)(O)O` [sodium phosphonomycin], in [1] (1 mg. of novobiocin included in the dose), the interaction of combination entry was “could be considered as potentiation”. Besides, the “sodium phosphonomycin required to protect the mice” value in assay [1] (1 mg. of novobiocin included in the dose vs its absence) was “less sodium phosphonomycin was required to protect the mice”. Moreover, the ED50 in the assay with Escherichia coli 2017 (alone) and in the assay on Escherichia coli 2017 (titrated in the presence of 0.5γ tetracycline) was 1000 γ each time. Also, the “% of effective dose” value in the assay with Escherichia coli 2017 (combination of 54% tetracycline with .5% sodium phosphonomycin) was “.5%”; with Escherichia coli 2017 (phosphonomycin titrated in the presence of 0.5γ tetracycline) it was 100%; in the assay on Escherichia coli 2017 (tetracycline titrated in the presence of 50γ sodium phosphonomycin) it was 5%. Moreover, the “enhancement of sodium phosphonomycin activity” value with Escherichia coli 2017 (two tests, constant quantity of tetracycline) is on record as “In neither test did a constant quantity of tetracycline enhance sodium phosphonomycin activity”.

Turning to `CN(C)[C@@H]1C(O)=C(C(N)=O)C(=O)[C@@]2(O)C(O)=C3C(=O)c4c(O)ccc(Cl)c4[C@@](C)(O)[C@H]3C[C@@H]12` [Chlortetracycline], the “MIC … of ≤ MIC/4 of phosphonomycin” value amounted to 0.25 in the assay with Proteus vulgaris and 0.5 with Streptococcus faecalis. For the same compound, the MIC in the assay with Proteus vulgaris was 2 mg/L; in the assay with Streptococcus faecalis, 0.5 mg/L. Also, in the assay on pathogenic bacteria, the “potentiation when combined with phosphonomycin” value is “potentiated”.
